US8338422B2, “Indolin-2-ones and aza-indolin-2-ones” (Janssen Pharmaceutica NV, priority 2007, dated 2012)

How the values were obtained:
PC-3 = test: Cellular proliferation assay (Alamar blue), PC-3; type: cell-based; conditions: PC-3 cells, 72 hours with compound, 10% FCS; for IC50: Homo sapiens, PC-3, 72 h, read-out: pIC50 PC-3 (converted)
Method in brief: (§1)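 Proliferation was assessed over 72 h of compound treatment, following 24 h of seeding without compound, under 10% FCS, 37° C. and 5% CO2. Fluorescent resazurin product was measured and compared with control cells.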

MDA/MB231 = test: Cellular proliferation assay (Alamar blue), MDA/MB231; type: cell-based; conditions: MDA/MB231 cells, 72 hours with compound, 10% FCS; for IC50: Homo sapiens, MDA-MB-231, 72 h, read-out: pIC50 MDA/MB231 (converted)
Method in brief: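 Seed cells, 24 h, no compound; add compound, 72 h, 10% FCS, 37° C./5% CO2; add resazurin 9 μg/ml with K-ferrocyanide and K-ferricyanide 90 μM each (4 h H460, 24 h MDA-MB-231); read fluorescence 544/590 nm; effect vs control cells.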

CDK1/CyclinB (h) = CDK1/CyclinB (h) (Homo sapiens, UniProt P06493); test: CDK1/CyclinB human kinase assay (FRET); type: biochemical; conditions: for IC50: read-out: CDK1 pIC50 (converted)
Method in brief: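 Kinase activity was read as the 460/538 nm emission ratio after protease cleavage of unphosphorylated peptide (60 min development). The reaction ran 60 min at room temperature with 10 μM ATP, 2 μM Ser/Thr peptide 12 and 0.2 μg/ml enzyme in Hepes pH 7.5 buffer with MgCl2, EGTA, Brij-35.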

SKOV3 = test: Cellular proliferation assay (Alamar blue), SKOV3; type: cell-based; conditions: Homo sapiens, SK-OV-3, SKOV3 cells, 72 hours with compound, 10% FCS, read-out: pIC50 SKOV3 (converted)
Protocol: […] functional properties of these compounds was tested in cellular proliferation assays on a panel of different cell lines in the presence of 10% FCS serum (37° C. and 5% (v/v) CO2). In a first step these cells were seeded and incubated for 24 hours in the absence of compound. In the second step the cells were incubated for 72 hours with the compounds to be tested for 72 hours. The viable cell number was finally assessed in a standard Alamar blue cell viability assay.
The viable cell number was assessed by incubation for either 4 h (HCT-116, H1299, H460) 6 h (SKOV3, HT29, U87-MG, Colo205) or 24 h (A2780, PC3, MDA-MB-231, A549, MCF-7) with Alamar blue (Resazurin 9 μg/ml, K-Ferrocyanide 90 μM K-Ferricyanide 90 μM) and the converted fluorescent product was quantified on a fluorescent plate readed (544 nm/590 nm). Effect of the compounds is calculated as of on control cells.

A2780 = test: Cellular proliferation assay (Alamar blue), A2780; type: cell-based; conditions: A2780 cells, 72 hours with compound, 10% FCS; for IC50: Homo sapiens, A2780, 72 h, read-out: pIC50 A2780 (converted)
Method in brief: as §1

H1299 = test: Cellular proliferation assay (Alamar blue), H1299; type: cell-based; conditions: H1299 cells, 72 hours with compound, 10% FCS; for IC50: Homo sapiens, NCI-H1299, 72 h, read-out: pIC50 H1299 (converted)
Method in brief: as §1

PLK4 (h) = PLK4 (h) (Homo sapiens, UniProt O00444); test: PLK-4 human kinase assay (SPA); type: biochemical; conditions: for IC50: read-out: PLK4 pIC50 (converted)
Method in brief: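 Radiometric readout: 33P-labelled peptide captured on streptavidin SPA beads after EDTA stop, imaged by Leadseeker. Reaction ran 60 min at room temperature in Hepes pH 8.0 buffer. It contained 1 μM ATP with 2 nM [γ-33P]ATP, 10 μM biotinylated peptide and PLK4 (h) at 19 μg/ml.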

U87MG = test: Cellular proliferation assay (Alamar blue), U87MG; type: cell-based; conditions: U87MG cells, 72 hours with compound, 10% FCS; for IC50: Homo sapiens, U-87 MG, 72 h, read-out: pIC50 U87MG (converted)
Method in brief: as §1

AuroraB (h) = AuroraB (h) (Homo sapiens, UniProt Q96GD4); test: Aurora-B human kinase assay (SPA); type: biochemical; conditions: for IC50: read-out: AuroraB pIC50 (converted)
Method in brief: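 33P-phosphorylated biotin-substrate captured on streptavidin PVT SPA beads after EDTA-containing stop and imaged on Leadseeker. Reaction: 60 min at room temperature, Hepes pH 7.5 with Mg2+/Mn2+. Conditions: 0.5 μM ATP plus 2.2 nM [γ-33P]ATP, 3 μM substrate, 0.5 μg/ml human AuroraB.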

GSK3β (h) = GSK3β (h) (Homo sapiens, UniProt P49841); test: GSK-3β human kinase assay (SPA); type: biochemical; conditions: for IC50: read-out: GSK3B pIC50 (converted)
Method in brief: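 Radiometric SPA read-out: after EDTA stop, biotinylated 33P-labelled peptide bound streptavidin PVT beads and was imaged on Leadseeker. Reaction: 60 min, room temperature, GSK3β (h) at 1 μg/ml, 1 μM substrate peptide, 1 μM ATP with 2 nM [γ-33P]ATP, Tris pH 7.4/MgCl2/DTT buffer.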

HCT-116 = test: Cellular proliferation assay (Alamar blue), HCT-116; type: cell-based; conditions: HCT-116 cells, 72 hours with compound, 10% FCS; for IC50: Homo sapiens, HCT-116, 72 h, read-out: pIC50 HCT-116 (converted)
Method in brief: as §1

Sequence of CDK1/CyclinB (h) (P06493 whole entry): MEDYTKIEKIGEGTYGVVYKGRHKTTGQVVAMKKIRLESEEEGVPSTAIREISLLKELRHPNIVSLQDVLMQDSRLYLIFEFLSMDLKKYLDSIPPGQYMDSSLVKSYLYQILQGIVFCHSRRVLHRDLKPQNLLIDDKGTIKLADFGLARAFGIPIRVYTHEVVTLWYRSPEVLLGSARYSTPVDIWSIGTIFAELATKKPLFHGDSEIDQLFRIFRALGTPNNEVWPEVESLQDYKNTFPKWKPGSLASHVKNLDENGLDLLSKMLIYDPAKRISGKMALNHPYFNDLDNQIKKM
Sequence of CDK1/CyclinB (h) (P14635 whole entry partner): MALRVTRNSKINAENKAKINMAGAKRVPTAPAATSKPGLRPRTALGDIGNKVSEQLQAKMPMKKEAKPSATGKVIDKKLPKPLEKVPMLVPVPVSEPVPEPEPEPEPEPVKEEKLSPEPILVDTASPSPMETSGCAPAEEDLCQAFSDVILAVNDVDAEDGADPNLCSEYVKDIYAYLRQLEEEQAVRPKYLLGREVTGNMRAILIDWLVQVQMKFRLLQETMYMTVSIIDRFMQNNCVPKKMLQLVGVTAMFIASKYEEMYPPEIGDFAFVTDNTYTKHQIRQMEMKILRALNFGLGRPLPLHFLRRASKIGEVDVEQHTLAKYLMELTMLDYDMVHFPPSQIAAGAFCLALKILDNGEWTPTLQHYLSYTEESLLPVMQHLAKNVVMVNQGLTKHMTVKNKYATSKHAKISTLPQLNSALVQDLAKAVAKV
Sequence of GSK3β (h) (P49841 whole entry): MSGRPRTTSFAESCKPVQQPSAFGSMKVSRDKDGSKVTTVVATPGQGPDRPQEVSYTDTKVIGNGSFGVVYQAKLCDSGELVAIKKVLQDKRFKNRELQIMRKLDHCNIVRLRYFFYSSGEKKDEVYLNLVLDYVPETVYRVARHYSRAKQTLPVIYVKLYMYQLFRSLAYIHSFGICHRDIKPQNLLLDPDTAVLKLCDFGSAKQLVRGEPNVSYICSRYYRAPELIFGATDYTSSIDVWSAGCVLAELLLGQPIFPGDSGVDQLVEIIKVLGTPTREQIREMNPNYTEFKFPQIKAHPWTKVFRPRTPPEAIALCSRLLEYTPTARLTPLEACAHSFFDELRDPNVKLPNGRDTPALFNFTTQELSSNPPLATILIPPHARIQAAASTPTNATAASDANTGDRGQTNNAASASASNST
Sequence of AuroraB (h) (Q96GD4 whole entry): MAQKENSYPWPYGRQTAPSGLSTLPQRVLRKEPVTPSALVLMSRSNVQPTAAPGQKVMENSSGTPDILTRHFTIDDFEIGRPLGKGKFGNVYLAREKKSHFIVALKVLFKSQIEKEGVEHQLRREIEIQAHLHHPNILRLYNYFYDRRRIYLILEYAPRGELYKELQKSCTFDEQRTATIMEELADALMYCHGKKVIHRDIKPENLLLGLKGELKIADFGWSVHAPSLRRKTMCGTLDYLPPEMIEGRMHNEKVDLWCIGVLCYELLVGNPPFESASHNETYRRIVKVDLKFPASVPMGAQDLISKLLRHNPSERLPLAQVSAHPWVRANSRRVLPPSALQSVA
Sequence of PLK4 (h) (O00444 whole entry): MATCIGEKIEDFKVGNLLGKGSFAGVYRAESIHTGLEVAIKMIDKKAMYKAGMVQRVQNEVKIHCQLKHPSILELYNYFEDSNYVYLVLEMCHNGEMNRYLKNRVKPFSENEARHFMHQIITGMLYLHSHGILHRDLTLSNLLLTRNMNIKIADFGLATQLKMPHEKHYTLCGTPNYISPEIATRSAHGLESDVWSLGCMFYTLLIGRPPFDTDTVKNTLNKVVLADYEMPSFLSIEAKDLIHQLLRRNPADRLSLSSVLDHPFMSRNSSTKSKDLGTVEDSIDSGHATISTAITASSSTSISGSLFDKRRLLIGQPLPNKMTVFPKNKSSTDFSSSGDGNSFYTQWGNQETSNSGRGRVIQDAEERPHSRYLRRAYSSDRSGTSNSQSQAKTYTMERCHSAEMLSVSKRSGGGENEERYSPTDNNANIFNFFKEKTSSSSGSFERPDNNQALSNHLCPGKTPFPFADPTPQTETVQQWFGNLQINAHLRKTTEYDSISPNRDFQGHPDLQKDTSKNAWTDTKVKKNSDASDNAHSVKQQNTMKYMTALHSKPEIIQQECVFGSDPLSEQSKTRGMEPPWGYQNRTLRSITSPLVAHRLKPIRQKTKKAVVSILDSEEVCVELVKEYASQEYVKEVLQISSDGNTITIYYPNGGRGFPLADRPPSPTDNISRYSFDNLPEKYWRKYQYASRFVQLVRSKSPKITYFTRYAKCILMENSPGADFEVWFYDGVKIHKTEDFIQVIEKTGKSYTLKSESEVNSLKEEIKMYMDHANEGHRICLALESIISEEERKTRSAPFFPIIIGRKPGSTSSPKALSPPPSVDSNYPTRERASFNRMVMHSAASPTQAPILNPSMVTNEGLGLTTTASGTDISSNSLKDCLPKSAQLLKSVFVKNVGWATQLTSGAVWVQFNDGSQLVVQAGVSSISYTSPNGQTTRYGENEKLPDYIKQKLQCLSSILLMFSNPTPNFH

IC50 (PC-3) [µM] | IC50 (CDK1/CyclinB (h)) [µM] | IC50 (A2780) [µM] | IC50 (H1299) [µM] | IC50 (PLK4 (h)) [µM] | IC50 (U87MG) [µM] | IC50 (AuroraB (h)) [µM] | IC50 (GSK3β (h)) [µM] | IC50 (HCT-116) [µM] | Compound | IC50 (MDA/MB231) [µM] | pIC50 PC-3 (PC-3) | pIC50 MDA/MB231 (MDA/MB231) | CDK1 pIC50 (CDK1/CyclinB (h)) | pIC50 A2780 (A2780) | pIC50 H1299 (H1299) | PLK4 pIC50 (PLK4 (h)) | pIC50 U87MG (U87MG) | pIC50 HCT-116 (HCT-116) | AuroraB pIC50 (AuroraB (h)) | GSK3B pIC50 (GSK3β (h)) | other results
> 10 | 6.31 | 2.57 | > 10 | 7.41 | > 10 | > 10 | > 10 | – | COc1cc2cc(c1OC)CN(C)CCCCC(=O)N(C)CCNc1ncnc3c1/C(=C/N2)C(=O)N3 [Compound 119] | > 10 | – | – | – | – | – | – | – | – | – | – | IC50 (SKOV3): > 10 µM
> 10 | > 10 | > 10 | > 10 | 0.417 | > 10 | > 10 | > 10 | 0.912 | COc1cc2cc(c1OC)OCCCC(=O)N(C)CCNc1ncnc3c1/C(=C/N2)C(=O)N3 [Compound 132] | > 10 | – | – | – | – | – | – | – | – | – | – | –
> 10 | > 10 | > 10 | > 10 | 7.41 | > 10 | > 10 | > 10 | > 10 | CN1CCNC(=O)CCCCCCOc2cc(ccc2Cl)N/C=C2\C(=O)Nc3ncnc1c32 [Compound 49] | > 10 | – | – | – | – | – | – | – | – | – | – | –
> 10 | > 10 | > 10 | > 10 | > 10 | > 10 | > 10 | > 10 | > 10 | CN1CCCCCCC(=O)NCCN(C)c2ncnc3c2/C(=C/Nc2cccc(c2)C1)C(=O)N3 [Compound 54] | > 10 | – | – | – | – | – | – | – | – | – | – | –
> 10 | > 10 | > 10 | > 10 | 5.01 | > 10 | > 10 | 0.302 | > 10 | CN1CCNc2ncnc3c2/C(=C/Nc2cccc(c2)CN(C)CC(=O)N(C)CC1)C(=O)N3 [Compound 149] | > 10 | – | – | – | – | – | – | – | – | – | – | –
> 10 | > 10 | > 10 | > 10 | 2.29 | > 10 | 8.71 | 4.79 | > 10 | COc1ccc2cc1OCCCCCCC(=O)NCCN(C)c1ncnc3c1/C(=C/N2)C(=O)N3 [Compound 47] | > 10 | – | – | – | – | – | – | – | – | – | – | –

Further lines, the molecule ahead of its results:

Compound | IC50 (PC-3) [µM] | IC50 (CDK1/CyclinB (h)) [µM] | IC50 (A2780) [µM] | IC50 (H1299) [µM] | IC50 (PLK4 (h)) [µM] | IC50 (U87MG) [µM] | IC50 (AuroraB (h)) [µM] | IC50 (GSK3β (h)) [µM] | IC50 (HCT-116) [µM] | IC50 (MDA/MB231) [µM] | pIC50 PC-3 (PC-3) | pIC50 MDA/MB231 (MDA/MB231) | CDK1 pIC50 (CDK1/CyclinB (h)) | pIC50 A2780 (A2780) | pIC50 H1299 (H1299) | PLK4 pIC50 (PLK4 (h)) | pIC50 U87MG (U87MG) | pIC50 HCT-116 (HCT-116) | AuroraB pIC50 (AuroraB (h)) | GSK3B pIC50 (GSK3β (h)) | other results
CN1CCNC(=O)CCCOc2cccc(c2)N/C=C2\C(=O)Nc3ncnc1c32 [Compound 40] | > 10 | 7.08 | > 10 | > 10 | 4.9 | > 10 | 8.32 | 1.51 | > 10 | > 10 | – | – | – | – | – | – | – | – | – | – | –
COc1ccc2cc1OCCCCCC(=O)NCCN(C)c1ncnc3c1C(=CN2)C(=O)N3 (mixture of isomers) [Compound 46] | – | – | – | – | – | – | – | – | – | – | <5 | <5 | <5 | <5 | <5 | 5.18 | 5.04 | <5 | 5.13 | 5.07 | –
CN1CCCNc2ncnc3c2C(=CNc2ccc(N4CCOCC4)c(c2)OCCCC1=O)C(=O)N3 (mixture of isomers) [Compound 124] | – | – | – | – | – | – | – | – | – | – | 6.02 | 5.37 | 7.53 | 5.94 | 6.89 | 7.34 | 6.16 | 6.21 | 6.13 | 7.33 | –
COc1ccc2cc1OCCCCC(=O)N(C)CCNc1ncnc3c1/C(=C/N2)C(=O)N3 [Compound 45] | 9.12 | 2.19 | > 10 | 2.82 | 0.537 | 1.66 | 0.24 | 0.12 | 1.91 | > 10 | – | – | – | – | – | – | – | – | – | – | –
CN1CCN(c2ccc3cc2OCCCCC(=O)N(C)CCCNc2ncnc4c2C(=CN3)C(=O)N4)CC1 (mixture of isomers) [Compound 136] | – | – | – | – | – | – | – | – | – | – | 5.39 | 5.55 | 5.88 | 5.89 | 5.67 | 7.19 | 6.54 | 6.44 | 5.55 | 7.23 | –
CN1CCN(c2ccc3cc2OCCCCC(=O)N(C)CCNc2ncnc4c2C(=CN3)C(=O)N4)CC1 (mixture of isomers) [Compound 135] | – | – | – | – | – | – | – | – | – | – | <5 | <5 | <5 | <5 | 5.31 | 6.67 | <5 | 5.21 | <5 | 6.2 | –
COc1cc2cc(c1OC)OCCCC(=O)NCCCNc1ncnc3c1C(=CN2)C(=O)N3 (mixture of isomers) [Compound 147] | – | – | – | – | – | – | – | – | – | – | 5.42 | <5 | 6.91 | 5.37 | 5.97 | 6.95 | 5.35 | 5.90 | 6.6 | 6.5 | –
CN1CCCNc2ncnc3c2C(=CNc2cccc(c2)OCCCC1=O)C(=O)N3 (mixture of isomers) [Compound 35] | – | – | – | – | – | – | – | – | – | – | 5.31 | <5 | 6.56 | 5.17 | 5.62 | 7.01 | 5.50 | 5.85 | 6.88 | 7.4 | –
CN1CCNc2ncnc3c2C(=CNc2cccc(c2)OCCCC1=O)C(=O)N3 (mixture of isomers) [Compound 58] | – | – | – | – | – | – | – | – | – | – | <5 | <5 | 6.16 | 6.2 | 5.89 | 6.75 | 5.13 | 6.17 | 6.33 | 6.88 | –
COc1cc2cc(c1OC)OCCCCC(=O)N(C)CCNc1ncnc3c1C(=CN2)C(=O)N3 (mixture of isomers) [Compound 129] | – | – | – | – | – | – | – | – | – | – | <5 | <5 | <5 | <5 | 5.65 | 5.71 | 5.42 | <5 | 5.26 | <5 | –
